{"source": "patent US11266599B2", "about": "“Inhalable dry powder cytidine analogue composition and method of use as a treatment for cancer” (Lovelace Biomedical Research Institute, priority 2018, dated 2022)", "key": {"[1]": {"test_system": "xenografts of human LC-derived cell lines", "details": "Rowett nude rat, systemic intraperitoneal injection, reference 29; cited from earlier work"}, "PD-L1": {"test_system": "PD-L1", "details": "LC cell lines, in vitro; cited from earlier work"}, "[2]": {"details": "room temperature; cited from earlier work"}, "[3]": {"details": "rats, intravenous 200 mg/kg for a month; cited from earlier work"}, "[4]": {"assay": "Pharmacokinetics study of systemic, inhaled aqueous and inhaled dry powder 5AZA, with and without THU", "assay_type": "in vivo, Sprague Dawley rat", "details": "THU 80 mg/kg oral", "experimental": "The 5AZA aerosol was delivered into the lungs of rats using a nose only inhalation delivery system in which a 5AZA dry powder formulation and a 5AZA aqueous formulation aerosol is generated with a rotating brush generator or Pari nebulizer, respectively. […] At each time-point, systemic blood was collected into K3EDTA tubes for separation into plasma and lung, liver, and brain tissue was snap frozen in liquid nitrogen. Plasma and lung tissue samples were assayed via a liquid chromatography mass spectrometry assay and the average concentration versus time profile modeled with non-compartmental analysis."}}, "data": [{"smiles": "Nc1ncn([C@@H]2O[C@H](CO)[C@@H](O)[C@H]2O)c(=O)n1", "note": "[5AZA, 4-amino-1-β-D-ribofuranosyl-1,3,5-triazin-2(1H)-one]", "values": [{"measurement": "reduction of tumor burden / suppression of tumor growth", "setting": "[1]", "result": 31, "unit": "%"}, {"measurement": "expression of PD-L1", "setting": "PD-L1", "result": "increased"}]}, {"smiles": "Nc1ncn([C@H]2C[C@H](O)[C@@H](CO)O2)c(=O)n1", "note": "[DAC, 5-aza-2′-deoxyazacytidine]", "values": [{"measurement": "stability in aqueous solution", "setting": "[2]", "result": "relatively unstable"}]}, {"smiles": "C[S+](C)[O-]", "note": "[DMSO]", "values": [{"measurement": "toxicity", "setting": "[3]", "result": "no toxicity"}]}, {"smiles": "O=C1NC(O)CCN1[C@@H]1O[C@H](CO)[C@@H](O)[C@H]1O", "note": "(stereo partly drawn) [THU, tetrahydrouridine]", "values": [{"measurement": "effect of addition of THU on PK profile of the dry powder formulation in brain", "setting": "[4]", "result": "greatly improved"}, {"measurement": "effect of addition of THU on lung PK of 5AZA", "setting": "[4]", "result": "did not influence"}]}]}
